Reference: patent publication US20230114207A1, “THE COMBINATION OF CYCLIN DEPENDENT KINASE 7 INHIBITOR AND IMMUNOTHERAPY FOR TREATMENT OF CANCER” (Dana-Farber Cancer Institute, Inc., priority 2019, published 2023)

Key:
[1] = In vivo toxicity evaluation in C57BL/6 mice
Description: For evaluation of in vivo toxicity of YKL-5-124, a dose-escalating study from 2.5 mg/kg to 15 mg/kg q.d. five times/week via intraperitoneal injection (i.p.) was tested in C57BL/6 mice. In vivo toxicities including body weight and blood cell counts including platelet, red blood cells and white blood cells were monitored. Similarly, a separate cohort was used to evaluate in vivo toxicity of combining YKL-5-124 and anti-PD-1 in C57BL/6 mice. For treatment studies, mice were evaluated by MRI imaging (Preclinical Imaging Laboratory, NYULH) to quantify lung tumor burden before for randomization and after drug treatment for efficacy evaluation. Mice were treated with either vehicle and isotype IgG (Control), anti-PD-1 200 μg/mouse (clone 29F.1A12), YKL-5-124 10 mg/kg, or combined anti-PD-1 and YKL-5-124 (Combo). YKL-5-124 was administered daily from Monday to Friday, and PD-1 antibody was administered three times a week (Monday, Wednesday, and Friday). For chemotherapy, cisplatin (5 mg/kg) was given on Day 1 and etoposide (10 mg/kg) on Day 1, 2, 3 every seven days per cycle for three cycles.

[2] = system: TNFα, CXCL9 and CXCL10 in BALF; assay: Luminex analysis of murine BAL fluid; format: in vivo, mouse; settings: after 7-day treatment
Description: Mouse lung bronchoalveolar lavage (BAL) was performed by intratracheal injection of 2 ml of sterile PBS followed by collection by aspiration. TNFα, CXCL9 and CXCL10 levels were measured using mouse Cytokine/Chemokine 32-plex Assay (MILLIPLEX, Millipore) on Luminex® SD system (Luminex). Concentrations (pg/ml) of each protein were derived from 5-parameter curve fitting models according to the manufacturer's instructions.

## C=CC(=O)Nc1ccc(C(=O)Nc2n[nH]c3c2CN(C(=O)N[C@H](CN(C)C)c2ccccc2)C3(C)C)cc1 [YKL-5-124]
[1]; C57BL/6, mouse, in vivo, ip
  well tolerated dose: up to 10 mg/kg
[1]; dose up to 10 mg/kg
  body weight and blood counts: no significant change
[2]
  TNFα, CXCL9 and CXCL10 in BALF: pronounced increase
